Results: patent US20120115742A1, “METHODS FOR IDENTIFICATION” (Cambridge Enterprise Limited, priority 2009, published 2012)
Like-named read-outs stand apart in the source and are kept apart here.

Key:
Panc-2H4 cells = assay: Human Panc-2H4 insulin suppression assay; format: cell-based; conditions: for Human Panc-2H4 insulin suppression assay Max effect: suppression compared to vehicle
Excerpt: (§1) Two different assays for “classical” sstr2 functions were adopted: (1) cultured foetal rat pituitary cells secreted growth hormone which is inhibited by sstr2 agonists in a dose-dependent fashion and (2) selected glucose-sensitive sub-clones of the human Panc-1 cell line secrete insulin which is inhibited by sstr2 agonists in a dose-dependent fashion.
Glucose-sensitive sub-clones of the human Panc-1, a cell line derived from a pleiomorphic epithelioid carcinoma of the exocrine pancreas, were obtained essentially as described by Hamil et al. (2008) Biomed. Sci. Instrum. 44:441-6. Briefly, Panc-1 cells were subcultured in 24 well plates, and the medium was supplemented with an additional 5% glucose. […] The resulting sub-lines were then tested for glucose sensitivity by preparing wells of a 96-well plate (5×10^4 cells per well) which were then exposed to cultured medium containing a range of glucose concentrations (low glucose DMEM, DMEM, DMEM+1% glucose, DMEM+2.5% glucose and DMEM+5% glucose). After 24 hrs incubation, the conditioned medium was collected and assayed for insulin secretion by ELISA (Linco; cat# EZHI-14K) in accordance with the manufacturer's instructions. […] Further 96 well plates were prepared using Panc-2H4 (5×10^4 cells per well) in DMEM. After 24 hrs, the medium was switched to DMEM+5% glucose containing various test agents at various concentrations (triplicate wells per condition). After a further 24 hrs, the conditioned medium was harvested and the concentration of insulin was determined by ELISA as described above.
(§2) Results were reported as the mean SD, expressed as the fold change from cells in the presence of vehicle only.

THP-1 cells = assay: MCP-1 induced THP-1 cell migration (Transwell/ChemoTx); conditions: for RATIO: Table 4, migration ED50 versus insulin ED50; for “Classical”:“BSCI” potency ratio, Human: THP-1 migration ED50 versus Panc-2H4 insulin ED50
Procedure: Leukocyte migration was measured using the 96-well format micro Transwell® assay system from Neuroprobe (Gaithersburg, Md., USA). In principle, this assay consists of two chambers separated by a porous membrane. The chemoattractant is placed in the lower compartment and the cells are placed in the upper compartment.
First, the cell suspension to be placed in the upper compartment was prepared. The THP-1 cells were pelleted by centrifugation (770×g; 4 mins) and washed with Geys Balanced Salt Solution with 1 mg/ml BSA (GBSS+BSA). This wash was then repeated, and the cells re-pelleted before being resuspended in a small volume of GBSS+BSA for counting, for example using a standard haemocytometer.
This ensured that there were 100,000 THP-1 cells in each 25 μl of the solution to be placed in the upper chamber of the plate.
To the third pot, GBSS+BSA plus vehicle as appropriate was added so that the volumes in three pots are equal, acting as a control.
Next, the chemoattractant solution to be placed in the lower compartment was prepared. […] This solution was divided into three pots, as for the cell suspension. To one pot, the BSCI was added to the same final concentration as was added to the cell suspension, in the second pot the BSCI and the sstr2 antagonist were both added at the same concentration as previously added to the cell suspension, while to the remaining pot GBSS+BSA plus vehicle as appropriate was added so that the volumes in the three pots were equal.
Once the chemoattractant solutions for the lower wells and cell solutions for the upper chambers were prepared, the migration chamber was assembled. 29 μl of the appropriate chemoattractant solution was placed into the lower well of the chamber. Assays were performed with at least triplicate determinations of each condition. Once all the lower chambers were filled, the porous membrane was applied to the chamber in accordance with the manufacturer's instructions. Finally, 25 μl of the appropriate cell solution was applied to each upper chamber. A plastic lid was placed over the entire apparatus to prevent evaporation.
The assembled chamber was incubated at 37° C., 5% CO2, for 2 hours.
At the end of the incubation, the liquid cell suspension was gently removed from the upper chamber, 20 μl of ice-cold 20 mM EDTA in PBS was added to the upper chamber, and the apparatus was incubated at 4° C. for 15 mins. This procedure caused any cells adhering to the underside of the membrane to fall into the lower chamber.
After this incubation the filter was carefully flushed with GBSS+BSA to wash off the EDTA, and then the filter was removed.
The number of cells migrated into the lower chamber under each condition can then be determined by a number of methods, including direct counting, labelling with fluorescent or radioactive markers or through the use of a vital dye. Typically, we utilised the vital dye MTT. 3 μl of stock MTT solution were added to each well, and then the plate was incubated at 37° C. for 1-2 hours during which time dehydrogenase enzymes within the cells converted the soluble MTT to an insoluble blue formazan product that could be quantified spectrophotometrically.
In parallel, an 8-point standard curve was set up. Starting with the number of cells added to each upper chamber (100,000) and going down in 2-fold serial dilutions in GBSS+BSA, the cells were added to a plate in 25 with 3 μl of MTT stock solution added. The standard curve plate was incubated along side the migration plate. At the end of this incubation, the liquid was carefully removed from the lower chambers, taking care not to disturb the precipitated formazan product.
The MCP-1 stimulated migration was determined by subtracting the average number of cells that reached the lower compartment in wells where no MCP-1 was added from the average number of cells that reached the lower compartment where MCP-1 was present at 25 ng/ml.

[1] = molecular target: type 2 somatostatin receptor (sstr2), human (human) (UniProt P30874); assay: cell-based or functional assay
[2] = molecular target: type 2 somatostatin receptor (sstr2), rat (rat) (UniProt P30680); assay: cell-based or functional assay
TNF-alpha = assay: Sub-lethal endotoxemia model, serum TNF-alpha after LPS; format: in vivo, mouse; conditions: very high / highest doses, 2 hours post LPS
Procedure: We selected the sub-lethal endotoxemia model in mouse, because this has been well characterised in our laboratory (see for example Fox et al. (2002) J. Med. Chem. 45:360-70; Fox et al. (2005) J. Med. Chem. 48:867-74). The extent of systemic inflammation in response to a single intraperitoneal injection of bacterial lipopolysaccharide (LPS) can be estimated by measuring serum TNF-alpha 2 hours post challenge.
Methods: Mice (CD1 strain; adult males; 6 per group) were treated with BSCI (in an appropriate vehicle) or with vehicle alone by an appropriate route. […] Simultaneously, one set of mice at each BSCI concentration received BIM 23627 at 4 mg/animal (120 mg/kg) by sub-cutaneous injection (a treatment condition known to suppress classical sstr2-mediated signalling, such as GH release, in rats; Tulipano et al. (2002) 143:1218-24). Between 30 mins and 1 hour after dosing (a period when a maximal plasma concentration of BSCI has been achieved), the inflammatory challenge was elicited by intraperitoneal injection of 750 μg of LPS (Sigma; L4130 lot#024K4077; 900,000 EU/mg).
After a further 2 hours, the animals were sacrificed by CO2 asphyxiation, and blood was drawn by cardiac puncture. Serum was prepared by conventional methods, and the level of TNF-alpha in serum was measured using an ELISA (R&D Systems; Murine Quantikine code# MTA00) performed in accordance with the manufacturer's instructions.

sstr2 = molecular target: T1, sstr2 (Homo sapiens, UniProt P30874); assay: [3H]-BN83250 equilibrium binding to THP-1 cells (Scatchard/competition)
T1 construct: with 1×10^6 THP-1 cells in Gey's Balanced Salt Solution, 10 nM [^3H]-BN83250; endogenous in cells; host or cells: THP-1 cells (intact cells, 4 °C)
Procedure: Methods: [^3H]-BN83250 was synthesesized from (S,E)-3-(2′,2′-dimethyldodec-4′-enoylamino)-caprolactam by catalytic hydrogenation using tritium gas over a palladium catalyst (CRB Ltd, Cleveland, UK), yielding the tritiated product at a concentration of 270 μM in ethanol with a specific activity of 220Ci/mmol. The (S,E)-3-(2′,2′-dimethyldodec-4′-enoylamino)-caprolactam was prepared as follows: (S,S)-3-amino-caprolactam hydro-pyrrolidine-5-carboxylate (10 mmol) and Na2CO3 (30 mmol) in water (30 ml) were added to a solution of 2,2-dimethyl-dodec-4-enoyl chloride (10 mmol) in dichloromethane (30 ml) at ambient temperature and the reaction was stirred for 12 hours. The organic layer was then separated and the aqueous phase was extracted with additional dichloromethane (2×25 ml). The combined organic layers were dried over Na2CO3 and reduced in vacuo. The residue was purified by silica column chromatography (1:1 EtOAc:hexanes to EtOAc) to give (S,E)-3-(2′,2′-dimethyl-dodec-4′-enoyl)amino-caprolactam as a colourless oil (2.12 g, 63%). The radiolabelled compound was stored in the dark at 4° C. until required. Prior to use the specific activity was adjusted by addition of unlabelled BN83250.
For the analysis of binding, individual reactions were set up (in triplicate for each condition), with 1×10^6 THP-1 cells in Gey's Balanced Salt Solution, 10 nM [^3H]-BN83250 (at 50 Ci/mmol) and various concentrations of (S)-3(2′2′-dimethylpropionoylamino)-tetrahydropyridin-2-one (10 pM to 10 μM). Excess (100 μM) unlabelled BN83250 was used to determine the level of non-specific binding. After 2 hours at 4° C. (conditions previously shown to achieve equilibrium binding, and which prevent uptake of the radioligand that would result in an over-estimate of binding) excess label was washed away by centrifugation (3 washes with 5 ml of Gey's Balanced Salt Solution) and the bound radioactivity was determined by scintillation counting of the solubilised cell pellet.
Hits from this assay were confirmed using conventional Scatchard analysis, exactly as described in Example 4 above.

fetal rat pituicytes = assay: Rat pituicyte GH suppression assay; format: cell-based; conditions: Table 3; suppression compared to vehicle
Excerpt: as §1
Methods: Cultures of fetal rat pituicytes were established exactly as previously described (Murray et al. (2004) J. Clin. Endocrinol. Metab. 89:3027-32) by enzymatic dispersion. After 48 hrs in low glucose DMEM plus 10% FCS, cells in 48 well plates (5×10^4 cells per well) were washed for 4 hrs in serum-free DMEM and then incubated with test agents at various concentrations for a further 24 hrs in serum-free DMEM. At the end of this period, the conditioned medium was harvested, any cell debris removed by centrifugation and assayed for […] using a commercially available ELISA (Linco; cat# EZRMGH-45K) in accordance with the manufacturer's instructions.
as §2

[3] = test system: rat peripheral blood leukocytes; assay: Rat chemokine-induced PBMC migration assay; format: cell-based
Procedure: Similarly, where human Panc-2H4 cells are used to determine the effect of agents on classical sstr2 targets, the result is compared with the effect of the same agents on chemokine-induced migration of human THP-1 cells. […] For this reason, the ratio of “classical” to “BSCI” activity in Table 3 is calculated separately for rat and human.

[4] = Table 4, 0.01-1,000 nM, 1% DMSO, read-out: Panc-2H4 insulin suppression assay (“classical” target) ED50

T1 sequence (P30874 whole entry): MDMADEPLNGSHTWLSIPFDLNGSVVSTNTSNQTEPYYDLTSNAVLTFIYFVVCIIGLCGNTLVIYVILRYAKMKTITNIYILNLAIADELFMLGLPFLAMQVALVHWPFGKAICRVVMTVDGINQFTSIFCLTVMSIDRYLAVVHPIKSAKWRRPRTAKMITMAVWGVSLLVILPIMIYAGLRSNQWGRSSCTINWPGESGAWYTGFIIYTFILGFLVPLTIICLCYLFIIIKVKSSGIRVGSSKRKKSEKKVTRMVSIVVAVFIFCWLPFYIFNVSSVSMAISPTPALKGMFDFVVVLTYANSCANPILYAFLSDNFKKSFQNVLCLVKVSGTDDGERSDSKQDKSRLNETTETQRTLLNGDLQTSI
Sequence of type 2 somatostatin receptor (sstr2), human (human) (P30874 whole entry): as above
Sequence of type 2 somatostatin receptor (sstr2), rat (rat) (P30680 whole entry): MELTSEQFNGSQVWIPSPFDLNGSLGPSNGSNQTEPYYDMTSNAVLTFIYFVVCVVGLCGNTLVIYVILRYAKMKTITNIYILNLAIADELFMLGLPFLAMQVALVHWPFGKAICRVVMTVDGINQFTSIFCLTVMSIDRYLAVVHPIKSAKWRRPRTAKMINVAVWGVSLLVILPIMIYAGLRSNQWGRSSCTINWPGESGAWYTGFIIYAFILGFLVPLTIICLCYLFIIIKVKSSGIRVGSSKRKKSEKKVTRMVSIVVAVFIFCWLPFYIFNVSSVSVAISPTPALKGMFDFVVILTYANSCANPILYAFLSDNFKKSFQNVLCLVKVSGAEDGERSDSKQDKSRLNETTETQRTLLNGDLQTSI

## CC(=O)NC(CC(N)=O)C(=O)NC(C(=O)NCC1CCCC(CN)C1)C(C)c1c[nH]c2ccccc12 (mixture of isomers) [D]
Panc-2H4 cells; Table 4
  Panc-2H4 insulin suppression assay Max Effect: 37%

## CC(c1c[nH]c2ccccc12)C(NC(=O)NC1CCCNC1=O)C(=O)NCC1CCCC(CN)C1 (stereo not shown) [Compound C]
Panc-2H4 cells; Table 4
  Panc-2H4 insulin suppression assay Max Effect: 56%
THP-1 cells
  RATIO: 0.02

## SST-28: alternatively processed sst28 natural ligand
THP-1 cells; Table 2, at the highest dose tested (1-10 μM)
  Max effect (maximum inhibition): 40-60%

## BIM58187 (peptide)
[1]
  Human Panc-2H4 insulin suppression assay ED50: > 1000 nM
  Human Panc-2H4 insulin suppression assay Max effect: < 10%
  Human chemokine-induced THP-1 migration assay ED50: 6.9 nM
  Human chemokine-induced THP-1 migration assay Max effect: 100%
[2]
  Rat chemokine-induced PBMC migration assay ED50: 15 nM
  Rat chemokine-induced PBMC migration assay Max effect: 100%
  Rat pituicyte GH suppression assay ED50: 550 nM
  Rat pituicyte GH suppression assay Max effect: 42%

## NCC1CCCC(CNC(=O)C(Cc2ccccc2)NC(=O)N2CCC(n3c(=O)[nH]c4ccccc43)CC2)C1 (stereo not shown) [F]
Panc-2H4 cells; Table 4
  Panc-2H4 insulin suppression assay Max Effect: <10%
Panc-2H4 cells; [4]
  EC50: > 1000 nM

## somatostatin-28 (from UniProt P61278 89-116) (peptide)
[1]
  Human Panc-2H4 insulin suppression assay ED50: 0.14 nM
  Human Panc-2H4 insulin suppression assay Max effect: 51%
  Human chemokine-induced THP-1 migration assay ED50: 0.9 nM
  Human chemokine-induced THP-1 migration assay Max effect: 38%
[2]
  Rat chemokine-induced PBMC migration assay ED50: 1.2 nM
  Rat chemokine-induced PBMC migration assay Max effect: 44%
  Rat pituicyte GH suppression assay ED50: 0.17 nM
  Rat pituicyte GH suppression assay Max effect: 73%

## C[C@@H]1C[C@H]2[C@@H]3CCC4=CC(=O)C=C[C@]4(C)[C@@]3(F)[C@@H](O)C[C@]2(C)[C@@]1(O)C(=O)CO [dexamethasone]
TNF-alpha
  inhibition of serum TNF-alpha: more than 90%

## CC(=O)NC(=O)C(NC(=O)N1CCC(n2c(=O)[nH]c3ccccc32)CC1)C(C)c1c[nH]c2ccccc12 (stereo not shown) [E]
Panc-2H4 cells; Table 4
  Panc-2H4 insulin suppression assay Max Effect: <10%
Panc-2H4 cells; [4]
  EC50: > 1000 nM

## CC(C)(C)C(=O)N[C@H]1CCCNC1=O
sstr2; competition with [3H]-BN83250
  Hill Slope: approximately −1.0

## C[C@@H](c1c[nH]c2ccccc12)[C@@H](NC(=O)N1CCC(n2c(=O)[nH]c3ccccc32)CC1)C(=O)NC[C@@H]1CCC[C@H](CN)C1 [L-779,976]
Panc-2H4 cells; Table 3
  Human Panc-2H4 insulin suppression assay Max effect: 40%
Panc-2H4 cells; Table 4
  Panc-2H4 insulin suppression assay Max Effect: 40%
Panc-2H4 cells; Table 5
  Panc-2H4 insulin suppression assay Max Effect: 40%
Fetal rat pituicytes
  Rat pituicyte GH suppression assay Max effect: 55%
THP-1 cells
  “Classical”:“BSCI” potency ratio, Human: 27

## CC(c1c[nH]c2ccccc12)C(NC(=O)N1CC(=O)NC(=O)C1)C(=O)NCC1CCCC(CN)C1 (stereo not shown) [Compound B]
Panc-2H4 cells; Table 4
  Panc-2H4 insulin suppression assay Max Effect: 52%
THP-1 cells
  RATIO: 1.3

## CC1(C(=O)N[C@H]2CCCCNC2=O)CCCCC1 [(S)-3-(1′-methylcyclohexyl-1′-carbonylamino)-caprolactam]
sstr2
  competition with BN83250 binding to sstr2: compete with BN83250 binding to sstr2 to a similar extent

## O=C1NCCCC[C@@H]1NC(=O)C12CC3CC(CC(C3)C1)C2 [BN83470, (S)-3-(admantane-1′-carbonylamino)-caprolactam]
Panc-2H4 cells; Table 3, read-out: Human Panc-2H4 insulin suppression assay ED50
  EC50: > 1000 nM
Panc-2H4 cells; Table 3
  Human Panc-2H4 insulin suppression assay Max effect: <10%
Panc-2H4 cells; highest concentrations tested
  inhibition of insulin secretion by Panc-2H4: None of these agents inhibited insulin secretion
sstr2
  competition with BN83250 binding to sstr2: compete with BN83250 binding to sstr2 to a similar extent
Fetal rat pituicytes
  Rat pituicyte GH suppression assay Max effect: 56%
THP-1 cells
  “Classical”:“BSCI” potency ratio, Human: <0.00008
THP-1 cells; Table 3
  Human chemokine-induced THP-1 migration assay Max effect: 100%
[3]; PBMC migration ED50 versus pituicyte GH ED50
  “Classical”:“BSCI” potency ratio, Rat: 0.0008
[3]; Table 3
  Rat chemokine-induced PBMC migration assay Max effect: 100%
